The source of these data is ChEMBL document CHEMBL1201862, “PubChem BioAssay data set” (2004).

Active and inactive are the calls of the source.

As usually defined, the EC50 is the concentration that produces a half-maximal response. In general, IC50 refers to the concentration at which inhibition is half-maximal. One may read the AC50 as the midpoint of the concentration-response curve, whichever way the signal moves.

In assay [1] the target is Voltage-gated inwardly rectifying potassium channel KCNH2 (Homo sapiens, UniProt Q12809). The assay is described as follows: hERG protection from proarrhythmic block, potency, dose response, cell-based, thallium flux (AID 2121). The format is ADME.
Assay [2] can be described thus: Glucagon-like peptide 1 release potency, NCI-H716 cell line, dose-response, half-maximal inhibitory concentration (AID 1117344). It counts as functional, cell-based.
A short description of assay [3]: Dose-response inhibition of insulin secretion in a rat insulinoma line at 5 mM glucose (AID 1117331). It counts as functional, cell-based. The conditions noted are these: INS-1E.
The nature of assay [4]: half-maximal inhibitory concentration for glucagon-like peptide-1 release, STC-1 cell line, dose-response (AID 1117345). It counts as functional, cell-based.
Assay [5] is described as follows: Luminescence Cell-Based Dose Confirmation HTS to Identify Inhibitors of Platelet Dense Granule Release. [Related pubchem assays: 1663 (Primary HTS), 1678 (Summary of Project)]. The format is functional.
Assay [6] in a line: Fluorescence Cell-Based Dose Response to Identify Inhibitors of Thrombin Receptor-Activating Peptide SFLLRN-Mediated P-Selectin Induction on Platelets. [Related pubchem assays: 1663 (Primary HTS), 1889 (retest at dose ), 1891 (counterscreen), 1678 (Project Summary)]. It counts as functional. For orientation: A counterscreen serves to expose hits that act by an unwanted route or on another target.

The target in assay [7] is Luciferin 4-monooxygenase (Photinus pyralis, UniProt P08659). The assay is described as follows: firefly luciferase enzyme inhibitors, dose response, biochemical, luminescence (AID 1891).
Assay [8] is described as follows: M. tuberculosis growth inhibition, HTS (AID 449762). It counts as functional.
A short description of assay [9]: Late stage results for the probe development effort to identify inhibitors of Plasmodium falciparum gametocytes: Luminescence-based cell-based high throughput dose response assay to identify inhibitors of viability of late stage Plasmodium falciparum gametocytes. The format is functional.
In a further assay the target is Paired box protein Pax-8 (Homo sapiens, UniProt Q06710). As to the kind of experiment: inhibitors of PAX8-driven TPO luciferase reporter, dose response, RMG-I cells, cherry-pick (AID 687027).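 Also: luciferase reporter driven by Pax8 target thyroperoxidase promoter measured by SteadyGlo luminescence.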 The format is functional, cell-based. For orientation: Reporter assays use an easily measured gene product as a stand-in for the process of interest.
The nature of assay [10]: control 3'UTR Renilla luciferase suppression, dose response, counter-screen for Shn3 inhibitor project, cell-based, Clone20-Shn3RL, cherry-picked (AID 624133). The format is functional.
The target in a further assay is Melanocortin receptor 4 (Homo sapiens, UniProt P32245). As to the kind of experiment: MC4R antagonist potency on cAMP, dose response, cell-based, TR-FRET, biased antagonists (AID 602298).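 Also: antagonist potency against agonist-stimulated cAMP production.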 The format is functional.
Assay [11] in a line: Shn3 3'UTR reporter inhibitors, dose response, cell-based, Clone20 osteoblasts, firefly luciferase, cherry-picked (AID 624132).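 Also: firefly luciferase luminescence from reporter carrying the Shn3 3'UTR in osteoblasts.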 The format is functional.
The nature of assay [12]: HepG2 cell cytotoxicity, dose response, cytotoxicity control for Shn3 inhibitor project, CellTiter-Glo, cherry-picked (AID 624134). It counts as functional, cell-based. A general note: ATP-based viability assays read luminescence as a measure of living cells.
Assay [13] is described as follows: A549 cell cytotoxicity, dose response, CellTiter-Glo luminescence, dry powder, set 17 (AID 1117284). The format is functional, cell-based.
The nature of assay [14]: nonselective inhibitors of cellular cAMP signaling, dose response, counter-screen for MC4R biased antagonist project, cell-based, TR-FRET cAMP detection (AID 602305).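 Also: U2OS cells stimulated with forskolin near its EC80 as the cAMP inducer; potency is for inhibition of forskolin-stimulated cAMP signaling.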 It counts as functional.
Assay [15] in a line: A549 cell cytotoxicity, dose response, cytotoxicity control, 24 h, CellTiter-Glo luminescence, cherry-picks (AID 1053115). The format is functional, cell-based. As to conditions: A549, 24 h.
Assay [16] in a line: P. falciparum ATP4 D1247Y mutant growth inhibitors, dose response, NITD609-resistant line, SYBR Green, dry powder (AID 1159571).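 Also: parasites synchronized at ring stage by sorbitol before testing.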 It counts as functional, cell-based.
A short description of assay [17]: P. falciparum 3D7-ScDHODH growth inhibitors, dose response, SYBR Green, dry powder samples (AID 1159570).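 Also: parasite growth measured after 72 hours of compound exposure.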 It counts as functional, cell-based.
A short description of assay [18]: P. falciparum Dd2 growth inhibitors, dose response, SYBR Green, dry powder samples (AID 1159566).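 Also: potency for growth inhibition with lower SYBR green DNA signal.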 The format is functional, cell-based.
Assay [19] is described as follows: HepG2 cell cytotoxicity, dose response, cytotoxicity control, plate reader, dry powder samples (AID 1159569).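 Also: inhibitor potency with signal falling toward the positive control level.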 It counts as functional, cell-based.
Assay [20] in a line: P. falciparum Dd2 growth inhibitors, dose response, SYBR Green, cherry-picked samples (AID 1159567). The format is functional, cell-based.
For assay [21], the target named is Bifunctional protein GlmU (Mycobacterium tuberculosis, UniProt P9WMN3). The assay is described as follows: Inhibitors of Mycobacterial Glucosamine-1-phosphate acetyl transferase (GlmU). Secondary screen. Details: species or system Mycobacterium tuberculosis H37Rv.
The target in another assay is Galanin receptor type 2 (Homo sapiens, UniProt O43603). As to the kind of experiment: Dose Response cell-based high-throughput screening assay to identify antagonists of galanin receptor 2 (GALR2). [Related pubchem assays: 828, 866 ]. The format is functional.
Galanin receptor type 2, sequence (O43603 whole entry): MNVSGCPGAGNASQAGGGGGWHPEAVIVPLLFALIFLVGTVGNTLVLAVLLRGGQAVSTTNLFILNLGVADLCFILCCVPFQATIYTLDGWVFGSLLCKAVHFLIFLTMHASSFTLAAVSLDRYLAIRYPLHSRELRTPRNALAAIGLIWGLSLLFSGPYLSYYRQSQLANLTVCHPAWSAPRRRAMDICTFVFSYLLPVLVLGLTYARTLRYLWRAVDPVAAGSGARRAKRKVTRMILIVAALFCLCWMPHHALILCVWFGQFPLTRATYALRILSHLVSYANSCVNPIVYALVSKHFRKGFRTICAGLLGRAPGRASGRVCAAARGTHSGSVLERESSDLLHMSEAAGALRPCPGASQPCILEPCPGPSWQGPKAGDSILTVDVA

Bifunctional protein GlmU, sequence (P9WMN3 whole entry): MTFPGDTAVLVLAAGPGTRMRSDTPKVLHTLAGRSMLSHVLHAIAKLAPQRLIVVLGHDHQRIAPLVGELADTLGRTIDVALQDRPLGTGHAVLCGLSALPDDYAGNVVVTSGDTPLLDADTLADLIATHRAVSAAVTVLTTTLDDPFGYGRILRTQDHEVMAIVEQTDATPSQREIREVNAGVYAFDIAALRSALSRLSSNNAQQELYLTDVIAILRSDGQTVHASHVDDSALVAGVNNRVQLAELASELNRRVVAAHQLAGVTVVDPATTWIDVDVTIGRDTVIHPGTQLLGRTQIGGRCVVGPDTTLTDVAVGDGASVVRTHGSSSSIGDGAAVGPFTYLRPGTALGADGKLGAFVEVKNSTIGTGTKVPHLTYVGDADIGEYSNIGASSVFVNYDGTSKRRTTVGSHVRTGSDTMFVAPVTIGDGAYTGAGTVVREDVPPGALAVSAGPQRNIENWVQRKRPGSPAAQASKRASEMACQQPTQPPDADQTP
Paired box protein Pax-8, sequence (Q06710 whole entry): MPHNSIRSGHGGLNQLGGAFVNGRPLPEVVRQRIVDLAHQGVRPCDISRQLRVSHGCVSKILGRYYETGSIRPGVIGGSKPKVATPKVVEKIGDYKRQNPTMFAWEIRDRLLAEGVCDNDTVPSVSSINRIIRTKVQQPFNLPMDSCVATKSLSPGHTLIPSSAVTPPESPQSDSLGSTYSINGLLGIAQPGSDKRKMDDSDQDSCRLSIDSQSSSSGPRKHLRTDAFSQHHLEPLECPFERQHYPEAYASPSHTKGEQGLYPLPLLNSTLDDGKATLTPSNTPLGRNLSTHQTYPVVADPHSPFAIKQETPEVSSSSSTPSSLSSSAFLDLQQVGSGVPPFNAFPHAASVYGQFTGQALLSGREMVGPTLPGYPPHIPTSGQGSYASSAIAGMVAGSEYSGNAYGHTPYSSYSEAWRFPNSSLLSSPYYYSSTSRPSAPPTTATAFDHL
Melanocortin receptor 4, sequence (P32245 whole entry): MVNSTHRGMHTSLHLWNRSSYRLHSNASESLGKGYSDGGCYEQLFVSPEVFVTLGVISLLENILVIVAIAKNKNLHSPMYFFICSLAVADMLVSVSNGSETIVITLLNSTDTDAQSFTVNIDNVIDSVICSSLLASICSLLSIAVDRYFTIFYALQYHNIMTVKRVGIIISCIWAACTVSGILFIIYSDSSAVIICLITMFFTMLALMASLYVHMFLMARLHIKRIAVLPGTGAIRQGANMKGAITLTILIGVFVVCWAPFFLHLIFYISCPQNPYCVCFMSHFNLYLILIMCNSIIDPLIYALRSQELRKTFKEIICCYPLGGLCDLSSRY
Luciferin 4-monooxygenase, sequence (P08659 whole entry): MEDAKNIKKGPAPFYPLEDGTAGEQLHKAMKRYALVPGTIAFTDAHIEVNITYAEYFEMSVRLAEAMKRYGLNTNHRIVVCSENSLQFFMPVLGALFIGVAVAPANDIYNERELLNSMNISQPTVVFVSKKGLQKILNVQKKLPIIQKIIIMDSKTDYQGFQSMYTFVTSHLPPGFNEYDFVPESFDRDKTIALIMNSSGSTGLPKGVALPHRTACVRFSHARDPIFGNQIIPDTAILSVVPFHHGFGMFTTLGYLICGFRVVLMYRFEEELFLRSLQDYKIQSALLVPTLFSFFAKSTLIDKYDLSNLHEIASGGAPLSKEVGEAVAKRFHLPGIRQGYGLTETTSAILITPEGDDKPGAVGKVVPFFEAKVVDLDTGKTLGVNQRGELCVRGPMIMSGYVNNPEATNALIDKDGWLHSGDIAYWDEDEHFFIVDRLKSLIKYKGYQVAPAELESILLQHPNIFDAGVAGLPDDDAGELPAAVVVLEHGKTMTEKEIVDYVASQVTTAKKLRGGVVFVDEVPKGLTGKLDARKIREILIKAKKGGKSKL
Voltage-gated inwardly rectifying potassium channel KCNH2, sequence (Q12809 whole entry): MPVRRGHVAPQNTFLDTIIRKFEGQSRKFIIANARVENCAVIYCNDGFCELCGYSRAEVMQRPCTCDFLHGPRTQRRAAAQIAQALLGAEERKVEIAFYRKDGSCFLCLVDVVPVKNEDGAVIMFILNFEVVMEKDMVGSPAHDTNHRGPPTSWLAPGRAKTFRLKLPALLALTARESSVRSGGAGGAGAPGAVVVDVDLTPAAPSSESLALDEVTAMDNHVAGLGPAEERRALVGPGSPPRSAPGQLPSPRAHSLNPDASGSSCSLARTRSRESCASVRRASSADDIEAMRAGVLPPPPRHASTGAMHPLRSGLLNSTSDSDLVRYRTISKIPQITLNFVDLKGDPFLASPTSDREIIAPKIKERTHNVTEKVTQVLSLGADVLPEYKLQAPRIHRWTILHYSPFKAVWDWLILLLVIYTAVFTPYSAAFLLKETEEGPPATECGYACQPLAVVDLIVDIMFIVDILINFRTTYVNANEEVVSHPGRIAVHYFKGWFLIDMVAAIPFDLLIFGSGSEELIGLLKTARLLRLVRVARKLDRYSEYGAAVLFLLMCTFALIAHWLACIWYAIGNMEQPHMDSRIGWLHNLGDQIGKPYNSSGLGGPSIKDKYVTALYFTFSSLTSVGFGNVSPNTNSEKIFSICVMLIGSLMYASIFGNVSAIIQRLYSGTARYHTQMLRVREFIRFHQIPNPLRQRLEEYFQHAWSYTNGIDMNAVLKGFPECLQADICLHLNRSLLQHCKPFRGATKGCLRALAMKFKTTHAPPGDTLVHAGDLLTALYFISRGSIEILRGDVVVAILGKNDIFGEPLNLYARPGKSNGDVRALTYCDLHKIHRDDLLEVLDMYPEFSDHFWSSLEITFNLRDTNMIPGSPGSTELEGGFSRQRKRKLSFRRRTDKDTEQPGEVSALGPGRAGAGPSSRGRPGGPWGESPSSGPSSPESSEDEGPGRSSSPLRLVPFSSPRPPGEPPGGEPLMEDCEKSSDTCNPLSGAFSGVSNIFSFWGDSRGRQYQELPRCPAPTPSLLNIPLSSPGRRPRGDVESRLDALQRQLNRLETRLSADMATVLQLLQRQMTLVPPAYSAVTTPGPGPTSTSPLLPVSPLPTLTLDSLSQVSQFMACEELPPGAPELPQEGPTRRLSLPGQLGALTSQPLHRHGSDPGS

With `CC(C)CNC(=S)NC(=O)c1ccc(Cl)cc1`, in [1], the EC50 is 6.61 µM (active).
Regarding `Cn1cc([S+](C)[O-])c(=O)c2ccc(F)cc21` (centres undefined) [FLOSEQUINAN], the IC50 in assay [2] is > 40 µM (inactive); in assay [3] it was > 33.3 µM (inactive); in assay [4] it was > 40 µM (inactive).
Consider `O=C(Oc1ccc(Cl)cc1)c1ccc(COC(=O)c2cnccn2)cc1`, for which the results for the EC50 in assay [5], in [6] and in assay [7] were 7.27 µM (active), > 100 µM (not active) and > 112 µM (not active), respectively.
On to `O=C1c2ccccc2C(=O)N1Nc1ccccc1`, for which the IC50 in assay [8] was > 100 µM (active).
For `Cc1ccc(-c2nn(-c3ccccc3)cc2C(=O)Nc2nccs2)cc1`, the IC50 in assay [9] was > 74.4 µM (inactive).
Turning to `C[C@H](O)C#Cc1ccc2c(c1)O[C@@H](CN(C)Cc1ccc(-c3ccccc3)cc1)[C@H](C)CN([C@@H](C)CO)S2(=O)=O`, the AC50 was 6.73 µM (active) on Paired box protein Pax-8; 27.6 µM (active) in assay [10]; 10.3 µM (active) in assay [11]; 19.4 µM (active) in assay [12]; 28.3 µM (active) in [13]; 42.8 µM (active) in [15]. Further, the IC50 (at Melanocortin receptor 4; in [14]) was > 64.6 µM (inactive) each time.
Turning to `C[C@@H]1CN([C@H](C)CO)S(=O)(=O)c2ccc(-c3ccncc3)cc2O[C@H]1CN(C)Cc1ccc(Oc2ccccc2)cc1`, the AC50 in assay [16] is 0.841 µM (active); in assay [17] it was 0.573 µM (active); in [18] it was 0.583 µM (active); in [19] it was 50 µM (active); in assay [20], 1.51 µM (active).
In the case of `CCn1c2ccc(C)cc2c2nc3cc(C(=O)O)ccc3nc21`, the IC50 in assay [21] is 191 µM (active); at Galanin receptor type 2 it was > 42 µM (not active).
